Experimental data from US9113629B2, “4-amino-6-(4-substituted-phenyl)-picolinates and 6-amino-2-(4-substituted-phenyl)-pyrimidine-4-carboxylates and their use as herbicides” (DOW AGROSCIENCES LLC, priority 2013, dated 2015).
Like-named read-outs stand apart in the source and are kept apart here.

Key:
[1] = test system: Key Broadleaf Weed and Crop Species; assay: Post-emergent Test II herbicidal activity (Table 5); assay type: in vivo; conditions: post-emergence, 336 h, post-emergent, 14 days after application; for pest or weed control at 70 g/ha: 70 g ai/ha; for pest or weed control at 140 g/ha: 140 g ai/ha
Method in brief: (§1)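 Injury was rated visually 14 d after treatment on a 0–100% scale against untreated controls. Test compounds, formulated with crop oil concentrate and surfactant and serially diluted down to 1/16× of the top rate, were applied by track sprayer at 187 L/ha onto first- to second-true-leaf seedlings.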

[2] = test system: Key Grass and Sedge Weeds as well as Grass Crops; assay: Post-emergent Test II herbicidal activity (Table 6); assay type: in vivo; conditions: post-emergence, 336 h; for pest or weed control at 70 g/ha: application rate 70 g ai/ha; for pest or weed control at 140 g/ha: application rate 140 g ai/ha
Method in brief: as §1

[3] = ABUTH: velvetleaf (Abutilon theophrasti), read-out: Visual Growth Reduction (%) 14 Days After Application ABUTH
[4] = AMARE: redroot pigweed (Amaranthus retroflexus), read-out: Visual Growth Reduction (%) 14 Days After Application AMARE
[5] = BRSNN: oilseed-rape, canola (Brassica napus), read-out: Visual Growth Reduction (%) 14 Days After Application BRSNN
[6] = CHEAL: lambsquarters (Chenopodium album), read-out: Visual Growth Reduction (%) 14 Days After Application CHEAL
[7] = EPHHL: wild poinsettia (Euphorbia heterophylla), read-out: Visual Growth Reduction (%) 14 Days After Application EPHHL
[8] = HELAN: sunflower (Helianthus annuus), read-out: Visual Growth Reduction (%) 14 Days After Application HELAN
[9] = VIOTR: wild pansy (Viola tricolor), read-out: Visual Growth Reduction (%) 14 Days After Application VIOTR
[10] = Triticum aestivum, TRZSS (wheat), read-out: Visual Growth Reduction (%) 14 Days After Application, TRZSS
[11] = CYPES: yellow nutsedge (Cyperus esculentus), read-out: Visual Growth Reduction (%) 14 Days After Application, CYPES
[12] = DIGSA: crabgrass (Digitaria sanguinalis), read-out: Visual Growth Reduction (%) 14 Days After Application, DIGSA
[13] = ECHCG: barnyardgrass (Echinochloa crus-galli), read-out: Visual Growth Reduction (%) 14 Days After Application, ECHCG
[14] = ORYSA: rice (Oryza sativa), read-out: Visual Growth Reduction (%) 14 Days After Application, ORYSA
[15] = SETFA: giant foxtail (Setaria faberi), read-out: Visual Growth Reduction (%) 14 Days After Application, SETFA
[16] = SORVU: grain sorghum (Sorghum vulgare), read-out: Visual Growth Reduction (%) 14 Days After Application, SORVU
[17] = ZEAMX: maize, corn (Zea mays), read-out: Visual Growth Reduction (%) 14 Days After Application, ZEAMX

Structure (SMILES) | pest or weed control at 70 g/ha [1, 3] [%] | pest or weed control at 140 g/ha [1, 3] [%] | pest or weed control at 70 g/ha [1, 4] [%] | pest or weed control at 140 g/ha [1, 4] [%] | pest or weed control at 70 g/ha [1, 5] [%] | pest or weed control at 140 g/ha [1, 5] [%] | pest or weed control at 70 g/ha [1, 6] [%] | pest or weed control at 140 g/ha [1, 6] [%] | pest or weed control at 70 g/ha [1, 7] [%] | pest or weed control at 140 g/ha [1, 7] [%] | pest or weed control at 70 g/ha [1, 8] [%] | pest or weed control at 140 g/ha [1, 8] [%] | pest or weed control at 70 g/ha [1, 9] [%] | pest or weed control at 140 g/ha [1, 9] [%] | pest or weed control at 70 g/ha [2, 10] [%] | pest or weed control at 140 g/ha [2, 10] [%] | pest or weed control at 70 g/ha [2, 11] [%] | pest or weed control at 140 g/ha [2, 11] [%] | pest or weed control at 70 g/ha [2, 12] [%] | pest or weed control at 140 g/ha [2, 12] [%] | further results
Nc1cc(-c2ccc(Br)c(F)c2)nc(C(=O)O)c1Cl [Compound 110, 4-Amino-6-(4-bromo-3-fluorophenyl)-3-chloropicolinic acid] | 95 to 100 | 95 to 100 | 95 to 100 | 95 to 100 | 95 to 100 | 95 to 100 | 95 to 100 | 95 to 100 | 95 to 100 | 95 to 100 | 95 to 100 | 95 to 100 | 45 to 59 | 45 to 59 | 45 to 59 | 45 to 59 | 45 to 59 | 45 to 59 | 75 to 84 | 75 to 84 | pest or weed control at 70 g/ha [2, 13]: 60 to 74%; pest or weed control at 140 g/ha [2, 13]: 75 to 84%; pest or weed control at 70 g/ha [2, 14]: 0 to 29%; pest or weed control at 140 g/ha [2, 14]: 0 to 29%; pest or weed control at 70 g/ha [2, 15]: 60 to 74%; pest or weed control at 140 g/ha [2, 15]: 60 to 74%; pest or weed control at 70 g/ha [2, 16]: 85 to 94%; pest or weed control at 140 g/ha [2, 16]: 85 to 94%; pest or weed control at 70 g/ha [2, 17]: 45 to 59%; pest or weed control at 140 g/ha [2, 17]: 60 to 74%
COc1c(N)nc(-c2ccc(Br)c(F)c2)nc1C(=O)O [Compound 113, 6-Amino-2-(4-bromo-3-fluorophenyl)-5-methoxypyrimidine-4-carboxylic acid] | 85 to 94 | 85 to 94 | 95 to 100 | 95 to 100 | 95 to 100 | 95 to 100 | 95 to 100 | 95 to 100 | 95 to 100 | 95 to 100 | 95 to 100 | 95 to 100 | 95 to 100 | 95 to 100 | 60 to 74 | 75 to 84 | 95 to 100 | 95 to 100 | 75 to 84 | 75 to 84 | pest or weed control at 70 g/ha [2, 13]: 85 to 94%; pest or weed control at 140 g/ha [2, 13]: 85 to 94%; pest or weed control at 70 g/ha [2, 14]: 30 to 44%; pest or weed control at 140 g/ha [2, 14]: 60 to 74%; pest or weed control at 70 g/ha [2, 15]: 75 to 84%; pest or weed control at 140 g/ha [2, 15]: 75 to 84%; pest or weed control at 70 g/ha [2, 16]: 85 to 94%; pest or weed control at 140 g/ha [2, 16]: 85 to 94%; pest or weed control at 70 g/ha [2, 17]: 85 to 94%; pest or weed control at 140 g/ha [2, 17]: 85 to 94%
COC(=O)c1nc(-c2ccc(Br)c(F)c2)cc(N)c1Cl [Compound 115, methyl 4-amino-6-(4-bromo-3-fluorophenyl)-3-chloropicolinate] | 85 to 94 | 85 to 94 | 95 to 100 | 95 to 100 | 60 to 74 | 75 to 84 | 95 to 100 | 95 to 100 | 95 to 100 | 95 to 100 | 85 to 94 | 95 to 100 | 95 to 100 | 95 to 100 | 0 to 29 | 0 to 29 | 95 to 100 | 95 to 100 | 85 to 94 | 85 to 94 | pest or weed control at 70 g/ha [2, 13]: 85 to 94%; pest or weed control at 140 g/ha [2, 13]: 85 to 94%; pest or weed control at 70 g/ha [2, 14]: 0 to 29%; pest or weed control at 140 g/ha [2, 14]: 0 to 29%; pest or weed control at 70 g/ha [2, 15]: 0 to 29%; pest or weed control at 140 g/ha [2, 15]: 0 to 29%; pest or weed control at 70 g/ha [2, 16]: 85 to 94%; pest or weed control at 140 g/ha [2, 16]: 95 to 100%; pest or weed control at 70 g/ha [2, 17]: 0 to 29%; pest or weed control at 140 g/ha [2, 17]: 0 to 29%
C=Cc1c(N)nc(-c2ccc(C(F)(F)F)c(F)c2)nc1C(=O)OC [Compound 137, Methyl 6-amino-2-(3-fluoro-4-(trifluoromethyl)phenyl)-5-vinylpyrimidine-4-carboxylate] | 75 to 84 | 85 to 94 | 0 to 29 | 0 to 29 | 0 to 29 | 0 to 29 | 0 to 29 | 45 to 59 | 0 to 29 | 60 to 74 | 45 to 59 | 60 to 74 | 0 to 29 | 0 to 29 | 0 to 29 | 0 to 29 | 45 to 59 | 45 to 59 | 0 to 29 | 0 to 29 | pest or weed control at 70 g/ha [2, 13]: 0 to 29%; pest or weed control at 140 g/ha [2, 13]: 0 to 29%; pest or weed control at 70 g/ha [2, 14]: 0 to 29%; pest or weed control at 140 g/ha [2, 14]: 0 to 29%; pest or weed control at 70 g/ha [2, 15]: 0 to 29%; pest or weed control at 140 g/ha [2, 15]: 0 to 29%; pest or weed control at 70 g/ha [2, 16]: 0 to 29%; pest or weed control at 140 g/ha [2, 16]: 0 to 29%; pest or weed control at 70 g/ha [2, 17]: 0 to 29%; pest or weed control at 140 g/ha [2, 17]: 0 to 29%
